We go through 22 molecules from patent publication US20260008770A1, “CBL-B INHIBITORS AND METHODS OF USES THEREOF” (Insilico Medicine IP Limited, priority 2022, published 2026).

A value given as a limit tells only on which side of the number the result lay.

For the first assay, the target named is Cbl-b protein (CBL-B, GST-Tag) (Homo sapiens (Human), UniProt Q13191). In words: HTRF based binding assay, affinity to Cbl-b protein.
Chain of Cbl-b protein (CBL-B, GST-Tag) (Q13191 whole entry): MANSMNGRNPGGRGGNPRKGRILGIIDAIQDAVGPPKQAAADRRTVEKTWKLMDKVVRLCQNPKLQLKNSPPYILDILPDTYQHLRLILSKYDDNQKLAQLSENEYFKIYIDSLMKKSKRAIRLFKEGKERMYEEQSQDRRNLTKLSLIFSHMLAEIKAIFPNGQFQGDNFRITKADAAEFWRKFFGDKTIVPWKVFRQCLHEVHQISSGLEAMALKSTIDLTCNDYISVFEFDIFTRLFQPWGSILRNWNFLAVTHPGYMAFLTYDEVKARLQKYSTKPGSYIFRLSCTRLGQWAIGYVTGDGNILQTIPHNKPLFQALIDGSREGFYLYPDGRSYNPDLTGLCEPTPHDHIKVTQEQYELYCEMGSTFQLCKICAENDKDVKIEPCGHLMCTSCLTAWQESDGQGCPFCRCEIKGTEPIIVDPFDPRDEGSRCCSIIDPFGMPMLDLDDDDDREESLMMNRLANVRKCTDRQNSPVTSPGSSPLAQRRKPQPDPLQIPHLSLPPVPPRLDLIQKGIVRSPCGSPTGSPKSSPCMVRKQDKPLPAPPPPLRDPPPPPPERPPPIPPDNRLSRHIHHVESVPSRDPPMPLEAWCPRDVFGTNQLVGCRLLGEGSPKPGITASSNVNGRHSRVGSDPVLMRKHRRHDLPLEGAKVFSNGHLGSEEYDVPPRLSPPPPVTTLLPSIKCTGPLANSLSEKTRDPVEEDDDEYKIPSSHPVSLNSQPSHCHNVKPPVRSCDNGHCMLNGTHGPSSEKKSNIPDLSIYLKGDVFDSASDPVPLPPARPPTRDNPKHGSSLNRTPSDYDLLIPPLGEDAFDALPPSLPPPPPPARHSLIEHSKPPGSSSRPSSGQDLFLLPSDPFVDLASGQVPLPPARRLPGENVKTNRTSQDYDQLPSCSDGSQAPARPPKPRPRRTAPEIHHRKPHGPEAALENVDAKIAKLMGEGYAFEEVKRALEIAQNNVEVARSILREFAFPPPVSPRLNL
Settings: not given
As for `Cn1cnnc1[C@]1(c2cccc(-n3cc4c(C(F)(F)F)cc(CN5CCC[C@H](OC(F)F)C5)cc4n3)c2)C[C@H](C)C1` [Example 74], the IC50 was in the range of 50 to 500 nM.

The molecule `CCc1cc([C@]2(c3nncn3C)C[C@@H](C)C2)cc(-n2cnc3ccc(CN4CCC[C@H](C)C4)cc3c2=O)n1` [Example 93] had an IC50 of 20 to 50 nM. With `C[C@H]1CCCN(Cc2cc(C(F)(F)F)c3cnn(-c4cccc([C@H](c5nncn5C)C5CCC5)c4)c(=O)c3c2)C1` [Example 19], the IC50 lay in the range of 50 to 500 nM. `CC1=CCCN(Cc2cc(C(F)(F)F)c3cn(-c4cccc(C5(c6nncn6C)CC(C)C5)c4)nc3c2)C1` (stereo not shown) [Example 79]: the IC50 is 20 to 50 nM. On the same count and under the same terms, in the case of `CC1CC(c2cc(CO)cc(-n3cc4c(C(F)(F)F)cc(CN5CCC[C@H](C)C5)cc4n3)c2)(c2nncn2C)C1` (stereo partly shown) [Example 60] it was 50 to 500 nM; in that of `CC1CC(c2cc(F)nc(-n3cnc4c(C(F)(F)F)cc(CN5CCC[C@H](C)C5)cc4c3=O)c2)(c2nncn2C)C1` (stereo partly shown) [Example 44], 20 to 50 nM. The same measure, in the same setting: in the case of `CC1CC(c2cccc(NC(=O)c3cc(CN4CCC[C@H](C)C4)cc4c3OC(F)(F)O4)c2)(c2nncn2C)C1` (stereo partly shown) [Example 25] it was 20 to 50 nM. In the case of `C[C@H]1CCCN(Cc2cc(C(F)(F)F)c3cn(-c4cc([C@]5(c6nncn6C)C[C@@H](C)C5)ccn4)nc3c2)C1` (single isomer, unassigned) [Example 58], the IC50 was 20 to 50 nM. Still for that read-out and setting: in the case of `CC1CC(c2ccnc(-n3cnc4c(C(F)(F)F)c(CN5CCC[C@H](C)C5)[nH]c4c3=O)c2)(c2nncn2C)C1` (stereo partly shown) [Example 46] it was 50 to 500 nM; in that of `COCC1CC(c2cccc(-n3cc4c(C(F)(F)F)cc(CN5CCC[C@H](C)C5)cc4n3)c2)(c2nncn2C)C1` (stereo partly shown) [Example 33], 20 to 50 nM; in that of `CC1CC(c2ccc(F)c(-n3cc4c(C(F)(F)F)cc(CN5CCC[C@H](C)C5)cc4n3)c2)(c2nncn2C)C1` (stereo partly shown) [Example 72], 20 to 50 nM.

Molecule `CC1CN(Cc2cc(C(F)(F)F)c3ncn(-c4cc([C@]5(c6nncn6C)C[C@@H](C)C5)ccn4)c(=O)c3c2)CCC1(F)F` (stereo partly shown) [Example 34] showed an IC50 of 20 to 50 nM. In turn, `CNC(=O)c1cc(-n2cc3c(C(F)(F)F)cc(CN4CCC[C@H](C)C4)cc3n2)cc(C2(c3nncn3C)CC(C)C2)c1` (stereo partly shown) [Example 43] returned an IC50 of 50 to 500 nM.

With `C#CC1CCCN(Cc2cc(C(F)(F)F)c3cnn(-c4cccc(C5(c6nncn6C)CC(C)C5)c4)c(=O)c3c2)C1` (stereo not shown) [Example 20], the IC50 lay within 500 to 1000 nM.

The same assay, now with this note: HTRF binding, CBL-B (GST-Tag), fluorescence labeled Cbl-b binding probe.
As to `C[C@H]1CCCN(Cc2cc(C(=O)Nc3cccc([C@]4(c5nncn5C)C[C@H](C)C4)c3)c(F)c(C(F)(F)F)c2)C1` [Example 29], the IC50 is less than 20 nM. Turning to `CC1CC(c2cccc(-c3nc4cc(CN5CCC[C@H](C)C5)cc(C(F)(F)F)c4s3)c2)(c2nncn2C)C1` (stereo partly drawn) [Example 4, (S)-2-(3-(3-methyl-1-(4-methyl-4H-1,2,4-triazol-3-yl)cyclobutyl)phenyl)-5-((3-methylpiperidin-1-yl)methyl)-7-(trifluoromethyl)benzo[d]thiazole], the IC50 is less than 20 nM. The same measure, in the same setting: the figure for `CC1CC(c2cccc(-n3ccc4c(C(F)(F)F)cc(CN5CCC[C@H](C)C5)cc4c3=O)c2)(c2nncn2C)C1` (stereo partly shown) [Example 23] is less than 20 nM. Same read-out and setting: the figure for `CC1CC(c2cccc(-n3cc(C(F)(F)F)c4ccc(CN5CCC[C@H](C)C5)cc4c3=O)c2)(c2nncn2C)C1` (stereo partly shown) [Example 12] is less than 20 nM; for `C[C@H]1CCCN(Cc2ccc3ncn(-c4cc([C@]5(c6nncn6C)C[C@@H](C)C5)cc(OCF)n4)c(=O)c3c2)C1` [Example 112] it is less than 20 nM; for `CC1CC(c2cc(C(N)=O)cc(-n3cc4c(C(F)(F)F)cc(CN5CCC[C@H](C)C5)cc4n3)c2)(c2nncn2C)C1` (stereo partly shown) [Example 52] it is less than 20 nM. As to `CC1CC(c2cccc(-n3cnc4c(C(F)(F)F)c(CN5CCC[C@H](C)C5)[nH]c4c3=O)c2)(c2nncn2C)C1` (stereo partly shown) [Example 63], the IC50 was less than 20 nM.

Molecule `CC1CN(Cc2cc(C(F)(F)F)c3ncn(-c4cc([C@]5(c6nncn6C)C[C@@H](C)C5)cc(OCF)n4)c(=O)c3c2)CCC1(F)F` (stereo partly shown) [Example 109] displayed an IC50 of less than 20 nM.
